# Assay results taken from paper PMC8294803, “A Roadmap to the Structure-Related Metabolism Pathways of Per- and Polyfluoroalkyl Substances in the Early Life Stages of Zebrafish (Danio rerio)” (Environmental Health Perspectives, 2021).
# “And” between values parts separate entries of the source, which are not always exact repeats. Identical values can stand only once. “Also recorded” adds a separate entry of the source.
# Tests used:
# zebrafish larvae [1] = assay: Bioconcentration factors (BCF) of PFAS in zebrafish larvae; details: zebrafish larvae; for BCF: exposure concentration not given
# Protocol: (§1) Zebrafish embryos were collected immediately after spawning, within 1 h, and subsequently transferred to 24-well plates with 1mL of facility water ( 0.036g sea salt, 0.15g sodium bicarbonate in 2L of reverse osmosis water). […] Three well replicates on the same plate were conducted for each concentration of individual chemical. […] Seven batches of experiments were performed to test all 74 PFAS. DMSO controls were incorporated in each batch of exposure experiments. Three replicates were performed for each treatment group, and 20 embryos were used for each replicate. […] For daily replenishment, 2.5mL of old exposure medium were replaced with freshly prepared medium every 24 h from 24 to 96 h post fertilization (hpf). Hatched or dead embryo numbers were recorded every 24 hpf, after which dead embryos were discarded from the growth media. Dead embryos or unhatched embryos were not used for PFAS measurement because the metabolism of PFAS might have been impacted. Zebrafish larvae collection occurred at 120 hpf. First, the larvae were anesthetized by cooling the plate in ice water (0–4°C) for ∼20 min . Then 8–15 larvae in each well were transferred into 1.5-mL tubes. Exposure media was carefully removed, and then the larvae were weighed (wet weight) after blotting excess water with a paper towel. […] Samples were stored at −80 °C until further chemical analysis was performed. Survival rate and hatching rate were calculated by summarizing all the documented data from the whole treatment duration. […] The exposure experiment of PFOSA was repeated using the same procedure as described above.
# (§2) Each sample was spiked with 2μL of 0.2μg/mL mass-labeled PFAS mixture. Following this, 500μL of dichloromethane/methanol (2:1, vol/vol) was added to each sample for PFAS extraction. Larvae were then homogenized via ultrasonic probe, followed by 30 min of shaking and 30 min of sonication. Each sample was centrifuged at 14,000×g for 5 min, after which the supernatant was transferred to new tubes. Extraction was repeated once and the two supernatants were combined, evaporated under nitrogen flow, and reconstituted in 200μL of methanol for MS analysis.
# (§3) Three microliters of each zebrafish extract was applied to a C18 column ( 1.5μm; 2.1mm×50mm; Thermo Scientific) and analyzed using a Vanquish ultra-HPLC system (Thermo Fisher Scientific) coupled to a Q Exactive high-resolution mass spectrometer (Thermo Fisher Scientific). The sampler and column compartments were maintained at 4°C and 40°C, respectively. The aqueous mobile phase solution (A) consisted of water, whereas the organic mobile phase solution (B) consisted of acetonitrile. […] MS data was acquired in full scan mode (100–1000 m/z, 70,000 mass resolution, 3×10^6 maximum ions collected per 100 ms), and tandem MS (MS/MS) data was recorded by all-ion fragmentation (AIF) mode. Negative and positive ion modes were carried out simultaneously at a 10-min method duration. […] An overview of the analyses conducted on the various PFAS is available in Table S2.
# GraphPad Prism (version 7.0.4; GraphPad Software) and R studio (version 1.1.456; R Studio Inc.) software was used, and an ANOVA with Dunnett tests was employed to evaluate the statistical significance of the percentage hatched and mortality rate. Exponential regressions were used to determine the relationships between bioconcentration factor (BCF) and binding affinities ( Kd ) to L-FABP.
# [2] = target: T1, recombinant human liver carboxylesterase 1 (hCES1) (Homo sapiens, UniProt P23141); assay: Hydrolysis of PFAS by recombinant hCES1; type: in vitro ADME; details: for Parent PFAS, hCES1 (%) / Parent PFAS, Control (%): 10 μM PFAS, single replicates; for Parent PFAS, hCES1 (%): 100 μg/L hCES1, phosphate buffer 37 °C 1 hour, axis %Control; for Parent PFAS, Control (%): without hCES1, phosphate buffer 37 °C 1 hour; for Concentration of hydrolysis product: from 10μM of parent, 100μg/L hCES1, 37°C; for concentration of corresponding hydrolysis product detected from parent PFAS, hCES1 / concentration of corresponding hydrolysis product detected from parent PFAS, Control: 10 µM parent PFAS, three replicates; for concentration of corresponding hydrolysis product detected from parent PFAS, hCES1: incubated with hCES1; for concentration of corresponding hydrolysis product detected from parent PFAS, Control: vehicle control group without hCES1; for percentage of polyfluoroalkyl carboxamide 19, hCES1: 100 μg/L hCES1; for percentage of polyfluoroalkyl carboxamide 19, hCES1 / percentage of polyfluoroalkyl carboxamide 19, Control: 37 °C, 1 hour, N=3; for percentage of polyfluoroalkyl carboxamide 19, Control: vehicle control without hCES1
# T1 construct: purchased Sigma Aldrich
# T1 sequence (P23141 18-567): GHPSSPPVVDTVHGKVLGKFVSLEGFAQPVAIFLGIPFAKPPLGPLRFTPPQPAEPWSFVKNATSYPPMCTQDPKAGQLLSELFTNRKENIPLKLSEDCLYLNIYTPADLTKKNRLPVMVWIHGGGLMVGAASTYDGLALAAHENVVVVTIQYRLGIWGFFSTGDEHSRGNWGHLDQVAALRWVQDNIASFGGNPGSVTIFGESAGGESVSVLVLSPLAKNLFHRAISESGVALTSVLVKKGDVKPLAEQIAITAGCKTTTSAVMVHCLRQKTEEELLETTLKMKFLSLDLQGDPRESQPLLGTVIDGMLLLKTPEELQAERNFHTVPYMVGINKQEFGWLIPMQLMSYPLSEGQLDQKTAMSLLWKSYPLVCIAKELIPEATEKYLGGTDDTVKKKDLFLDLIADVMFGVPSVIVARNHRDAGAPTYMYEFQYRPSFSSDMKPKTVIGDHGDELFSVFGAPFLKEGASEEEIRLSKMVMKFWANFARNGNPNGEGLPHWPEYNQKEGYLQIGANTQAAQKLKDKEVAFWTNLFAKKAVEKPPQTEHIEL
# Protocol: Because recombinant zebrafish CES is not available, we decided to use hCES1 to evaluate the structure-related hydrolysis of PFAS. […] In vitro enzymatic activity experiments were carried out for 1 h in 1.5-mL tubes with 100μL phosphate buffer ( 137 mM sodium chloride, 10 mM phosphate buffer, 2.7 mM potassium chloride; pH 7.4) at 37°C with shaking. Reaction mixtures contained different concentrations of PFAS (1, 10, and 50μM ) and 100μg/L hCES1. […] To stop the hydrolysis reaction, four times the volume of ice-cold methanol was added. The hCES1 protein was precipitated out by centrifugation ( 14,000×g , 10 min). The supernatant was transferred to a new tube and analyzed via MS for the analysis of parent compounds and suspected metabolites (i.e., carboxylates).
# zebrafish larvae [3] = assay: Nontargeted analysis of PFAS metabolites in zebrafish larvae (high-resolution MS); details: for Metabolites / hydrolysis products in zebrafish larvae: in vivo, nontargeted analysis; for Profile of metabolites (%): Alcohol / Peak intensity: Alcohol (parent FTOH): zebrafish larvae; for Profile of metabolites (%): Alcohol: Figure 5B; for Peak intensity: Alcohol (parent FTOH): single replicates, Figure 5A
# Protocol: as §1, §2, §3
# Nontargeted data analysis was accomplished with R scripts that are available on Github (https://github.com/huiUofT/PFASmetabolite). […] The peak features were matched across samples with a mass tolerance of 2.5 ppm and a RT window of 20 s, after RT adjustment. The ratio of abundances of each feature in treatment groups relative to the control group (DMSO) was calculated. The p -values of the difference between two groups were determined by student’s t -tests.
# zebrafish embryos = details: for pericardial oedemata, Mean / spinal curvature, Mean / tail dysplasia, Mean: 5μM through 120 hpf, malformation rate; for Mortality (%): 5 µM, exposure through 120 hpf
Compound,BCF (zebrafish larvae [1]) [L/kg],"Parent PFAS, hCES1 (%) [2]","Parent PFAS, Control (%) [2]",Concentration of hydrolysis product [2],Metabolites / hydrolysis products in zebrafish larvae (zebrafish larvae [3]),"pericardial oedemata, Mean (zebrafish embryos) [%]","spinal curvature, Mean (zebrafish embryos) [%]","tail dysplasia, Mean (zebrafish embryos) [%]",Mortality (%) (zebrafish embryos),further results
"NC(=O)C(F)(F)C(F)(F)C(F)(F)C(F)(F)C(N)=O [compound 58, Octafluoroadipamide]",< 10,97.41% and 90.44% and 135.26%,83.59% and 76.79% and 139.62%,not detected,metabolites were not detected; also recorded: no metabolite was detected,1.11,1.11,0.00,6.7,–
"2,2-Difluoroethyl triflate [compound 13]",–,–,–,not detected,metabolites were not detected,2.22,0.00,1.11,2.2,"concentration of corresponding hydrolysis product detected from parent PFAS, hCES1 [2]: 0.00 µM; concentration of corresponding hydrolysis product detected from parent PFAS, Control [2]: 0.00 µM"
"COC(=O)C(F)(F)C(F)(F)C(F)(F)C(F)(F)C(F)(F)F [compound 36, Methyl perfluorohexanoate]",–,–,–,not detected,metabolites were not detected,1.11,0.00,0.00,4.4,–
"NC(=O)C(F)(F)C(F)(F)C(F)(F)F [compound 31, Heptafluorobutyramide]",< 10,88.80% and 125.28% and 71.56%,98.24% and 100.70% and 101.05%,–,high abundances of metabolized carboxylates were detected,0.00,0.00,0.00,2.2,–
"OCC(F)(F)OC(F)(F)C(F)(F)OC(F)(F)CO [compound 32, 1H,1H,8H,8H-Perfluoro-3,6-dioxaoctane-1,8-diol]",–,–,–,–,–,1.11,0.00,1.11,3.3,"BCF at 0.5μM compared with 5μM (zebrafish larvae [1]): comparable or even higher BCFs at 5μM; BCF 0.5µM (zebrafish larvae [1]; 0.5 µM exposure, 120 hpf, three replicates): 5.939 L/kg; BCF 5µM (zebrafish larvae [1]; 5 µM exposure, 120 hpf, three replicates): 8.4 ± 1.1 L/kg; Profile of metabolites (%): Alcohol (zebrafish larvae [3]): 48.26%; Peak intensity: Alcohol (parent FTOH) (zebrafish larvae [3]): 13344387 and 7489514 and 11717785"
"OCC(F)(F)C(F)(F)C(F)(F)C(F)(F)C(F)(F)C(F)F [compound 67, Dodecafluoroheptanol]",–,–,–,–,–,1.11,0.00,0.00,0,Profile of metabolites (%): Alcohol (zebrafish larvae [3]): 0.00%; Peak intensity: Alcohol (parent FTOH) (zebrafish larvae [3]): 0
"NC(=O)C(F)(F)C(F)(F)C(F)(F)C(F)(F)F [compound 19, Nonafluoropentanamide]",< 10,0.00%,100.46% and 90.28% and 109.26%,–,high abundances of metabolized carboxylates were detected,0.00,0.00,0.00,1.1,"percentage of polyfluoroalkyl carboxamide 19, hCES1 ([2]; 1 μM 19): 0.00%; percentage of polyfluoroalkyl carboxamide 19, Control ([2]; 1 μM 19): 114.95% and 85.05%; percentage of polyfluoroalkyl carboxamide 19, hCES1 ([2]; 10 μM 19): 0.00%; percentage of polyfluoroalkyl carboxamide 19, Control ([2]; 10 μM 19): 100.46% and 90.28% and 109.26%; Parent hydrolyzed by hCES1 ([2]; 10μM PFAS, 100μg/L hCES1): completely metabolized; percentage of polyfluoroalkyl carboxamide 19, hCES1 ([2]; 50 μM 19): 62.27% and 65.75% and 66.90%; percentage of polyfluoroalkyl carboxamide 19, Control ([2]; 50 μM 19): 96.65% and 95.06% and 108.30%"
2-(Trifluoromethoxy)ethyl trifluoromethanesulfonate [compound 10],–,–,–,not detected,metabolites were not detected,2.22,1.11,0.00,0,"concentration of corresponding hydrolysis product detected from parent PFAS, hCES1 [2]: 0.00 µM; concentration of corresponding hydrolysis product detected from parent PFAS, Control [2]: 0.00 µM"
"COC(=O)C(F)(F)C(F)(F)C(F)(F)F [compound 47, Methyl heptafluorobutyrate]",–,–,–,not detected,metabolites were not detected,2.22,1.11,0.00,0,–
